Laboratory results taken from PubChem BioAssay AID248 (DTP/NCI, 2004).
Toxic doses and inconclusive results are not listed. No stated cut-off is given here; in the data, active means T/C of 150% or more; inactive means T/C below 125%.

Tested on: L1210 leukemia ip in BDF1 mice, survival T/C
Test: NCI In Vivo Anticancer Drug Screen. Data for tumor model L1210 Leukemia (intraperitoneal) in B6D2F1 (BDF1) mice
Conditions: endpoint: mean survival time, higher = longer survival
Procedure, shortened: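 Ratio derived from survival: compound-dosed mice over vehicle-dosed mice, all bearing a transplantable tumor.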

[1] = dose: 100.0 mg/kg/injection, schedule: Q04DX003 (ip), vehicle: acetone
[2] = dose: 200.0 mg/kg/injection, schedule: Q04DX003 (ip), vehicle: acetone
[3] = dose: 400.0 mg/kg/injection, schedule: Q04DX003 (ip), vehicle: acetone
[4] = dose: 100.0 mg/kg/injection, schedule: Q01DX009 (ip), vehicle: saline with Tween-80
[5] = dose: 100.0 mg/kg/injection, schedule: Q04DX003 (ip), vehicle: saline with Tween-80
[6] = dose: 200.0 mg/kg/injection, schedule: Q01DX009 (ip), vehicle: saline with Tween-80
[7] = dose: 200.0 mg/kg/injection, schedule: Q04DX003 (ip), vehicle: saline with Tween-80
[8] = dose: 400.0 mg/kg/injection, schedule: Q01DX009 (ip), vehicle: saline with Tween-80
[9] = dose: 400.0 mg/kg/injection, schedule: Q04DX003 (ip), vehicle: saline with Tween-80
[10] = dose: 100.0 mg/kg/injection, schedule: Q04DX003 (ip), vehicle: saline
[11] = dose: 200.0 mg/kg/injection, schedule: Q04DX003 (ip), vehicle: saline
[12] = dose: 400.0 mg/kg/injection, schedule: Q04DX003 (ip), vehicle: saline
[13] = dose: 100.0 mg/kg/injection, schedule: Q04DX003 (ip), vehicle: Klucel (hydroxypropylcellulose) (HPC)
[14] = dose: 200.0 mg/kg/injection, schedule: Q04DX003 (ip), vehicle: Klucel (hydroxypropylcellulose) (HPC)
[15] = dose: 400.0 mg/kg/injection, schedule: Q04DX003 (ip), vehicle: Klucel (hydroxypropylcellulose) (HPC)
[16] = dose: 100.0 mg/kg/injection, schedule: Q01DX001 (ip), vehicle: carboxymethylcellulose (CMC)
[17] = dose: 100.0 mg/kg/injection, schedule: Q01DX009 (ip), vehicle: Klucel (hydroxypropylcellulose) (HPC)
[18] = dose: 200.0 mg/kg/injection, schedule: Q01DX009 (ip), vehicle: Klucel (hydroxypropylcellulose) (HPC)
[19] = dose: 400.0 mg/kg/injection, schedule: Q01DX009 (ip), vehicle: Klucel (hydroxypropylcellulose) (HPC)

Measured: T/C

CCCCCCCCN(CCCCCCCC)C(C)C(=O)c1ccc2cc(Br)c3ccccc3c2c1 (configuration not stated)
inactive: [1] 96 % of control | [2] 107 % of control | [3] 103 % of control

Cc1ccccc1C(=O)NCC(=O)O
inactive: [4] 91 % of control | [5] 95 % of control | [6] 91 % of control | [7] 94 % of control | [8] 86 % of control | [9] 98 % of control

CCOP(=O)(CC)C(Cl)(Cl)Cl (configuration not stated)
inactive: dose: 100.0 mg/kg/injection, schedule: Q04DX002 (ip), vehicle: saline with Tween-80 93 % of control | dose: 200.0 mg/kg/injection, schedule: Q04DX002 (ip), vehicle: saline with Tween-80 90 % of control | dose: 400.0 mg/kg/injection, schedule: Q04DX002 (ip), vehicle: saline with Tween-80 93 % of control

CC(=O)c1cccc(C#N)c1
inactive: [4] 100 % of control | [6] 97 % of control | [8] 105 % of control

CCC(c1ccc2cc(OC)ccc2c1)C(C)(C)C(=O)O (configuration not stated)
inactive: dose: 100.0 mg/kg/injection, schedule: Q01DX001 (sc), vehicle: steriod suspending solution 112 % of control | dose: 200.0 mg/kg/injection, schedule: Q01DX001 (sc), vehicle: steriod suspending solution 95 % of control | dose: 400.0 mg/kg/injection, schedule: Q01DX001 (sc), vehicle: steriod suspending solution 101 % of control

CCOC(=O)C[N+]1(C)CCC(O)CC1 (configuration not stated)
inactive: [10] 98 % of control | [11] 98 % of control | [12] 101 % of control

CSCC(C(N)=O)c1cc(Cl)ccc1Cl (configuration not stated)
inactive: dose: 100.0 mg/kg/injection, schedule: Q01DX001 (ip), vehicle: Klucel (hydroxypropylcellulose) (HPC) 107 % of control | dose: 100.0 mg/kg/injection, schedule: Q01DX009 (ip), vehicle: water 100 % of control | [13] 102 % of control | dose: 100.0 mg/kg/injection, schedule: Q04DX003 (ip), vehicle: water 100 % of control | dose: 200.0 mg/kg/injection, schedule: Q01DX001 (ip), vehicle: Klucel (hydroxypropylcellulose) (HPC) 103 % of control | dose: 200.0 mg/kg/injection, schedule: Q01DX009 (ip), vehicle: water 94 % of control | [14] 104 % of control | dose: 200.0 mg/kg/injection, schedule: Q04DX003 (ip), vehicle: water 100 % of control | dose: 400.0 mg/kg/injection, schedule: Q01DX001 (ip), vehicle: Klucel (hydroxypropylcellulose) (HPC) 102 % of control | dose: 400.0 mg/kg/injection, schedule: Q01DX009 (ip), vehicle: water 94 % of control | [15] 96 % of control | dose: 400.0 mg/kg/injection, schedule: Q04DX003 (ip), vehicle: water 90 % of control

COc1ccc(/C=C/C(=O)c2ccccc2)cc1Br
inactive: [5] 100 % of control | [7] 96 % of control | [9] 96 % of control

CC(C)OP(=O)(Cc1ccccc1CBr)OC(C)C
inactive: dose: 100.0 mg/kg/injection, schedule: Q04DX002 (ip), vehicle: saline 109 % of control | dose: 200.0 mg/kg/injection, schedule: Q04DX002 (ip), vehicle: saline 102 % of control | dose: 400.0 mg/kg/injection, schedule: Q04DX002 (ip), vehicle: saline 109 % of control

Cc1nc2ccccc2cc1C#N
inactive: [16] 118 % of control | dose: 200.0 mg/kg/injection, schedule: Q01DX001 (ip), vehicle: carboxymethylcellulose (CMC) 118 % of control | dose: 400.0 mg/kg/injection, schedule: Q01DX001 (ip), vehicle: carboxymethylcellulose (CMC) 108 % of control

O=C(C[n+]1ccccc1/C=N/O)c1ccccc1
inactive: dose: 12.5 mg/kg/injection, schedule: Q01DX009 (ip), vehicle: saline with Tween-80 101 % of control | dose: 25.0 mg/kg/injection, schedule: Q01DX009 (ip), vehicle: saline with Tween-80 99 % of control | dose: 50.0 mg/kg/injection, schedule: Q01DX009 (ip), vehicle: saline with Tween-80 101 % of control | dose: 75.0 mg/kg/injection, schedule: Q01DX001 (ip), vehicle: other 97 % of control

COC1OC2COC(c3ccccc3)OC2C(O)C1OC(N)=S (configuration not stated)
inactive: dose: 25.0 mg/kg/injection, schedule: Q04DX002 (ip), vehicle: Klucel (hydroxypropylcellulose) (HPC) 98 % of control | dose: 50.0 mg/kg/injection, schedule: Q04DX002 (ip), vehicle: Klucel (hydroxypropylcellulose) (HPC) 98 % of control | dose: 100.0 mg/kg/injection, schedule: Q04DX002 (ip), vehicle: Klucel (hydroxypropylcellulose) (HPC) 88 % of control | dose: 200.0 mg/kg/injection, schedule: Q04DX002 (ip), vehicle: Klucel (hydroxypropylcellulose) (HPC) 100 % of control | dose: 400.0 mg/kg/injection, schedule: Q04DX002 (ip), vehicle: Klucel (hydroxypropylcellulose) (HPC) 96 % of control

O=C1OC(O)C(Cl)=C1Cl (configuration not stated)
inactive: dose: 6.25 mg/kg/injection, schedule: Q04DX002 (ip), vehicle: saline with Tween-80 107 % of control | dose: 12.5 mg/kg/injection, schedule: Q04DX002 (ip), vehicle: saline with Tween-80 103 % of control | dose: 25.0 mg/kg/injection, schedule: Q04DX002 (ip), vehicle: saline with Tween-80 114 % of control

Oc1ccc2ccccc2c1N=Nc1cc[c]([Hg][Cl])cc1
inactive: dose: 5.0 mg/kg/injection, schedule: Q01DX001 (ip), vehicle: saline 91 % of control | dose: 10.0 mg/kg/injection, schedule: Q01DX001 (ip), vehicle: saline 107 % of control | dose: 20.0 mg/kg/injection, schedule: Q01DX001 (ip), vehicle: saline 96 % of control | dose: 40.0 mg/kg/injection, schedule: Q01DX001 (ip), vehicle: saline 100 % of control

CCCC[As](=O)(O)CCO
inactive: dose: 25.0 mg/kg/injection, schedule: Q04DX003 (ip), vehicle: saline with Tween-80 102 % of control | dose: 50.0 mg/kg/injection, schedule: Q04DX003 (ip), vehicle: saline with Tween-80 94 % of control

COc1ccccc1CCCOC(=O)c1ccc([N+](=O)[O-])cc1
inactive: dose: 100.0 mg/kg/injection, schedule: Q01DX001 (ip), vehicle: saline with Tween-80 100 % of control | dose: 200.0 mg/kg/injection, schedule: Q01DX001 (ip), vehicle: saline with Tween-80 95 % of control | dose: 400.0 mg/kg/injection, schedule: Q01DX001 (ip), vehicle: saline with Tween-80 89 % of control

CCOC(=O)c1ccc(NP(=O)(Nc2ccc(C(=O)OCC)cc2)c2ccc([N+](=O)[O-])cc2)cc1
inactive: [1] 87 % of control | [2] 95 % of control | [3] 95 % of control

CCN(CC)C(=O)Nc1ccccc1F
inactive: [17] 104 % of control | [18] 98 % of control | [19] 119 % of control

CC(=O)CC(=O)N1CCCC(C)C1 (configuration not stated)
inactive: [17] 102 % of control | [13] 104 % of control | [18] 92 % of control | [14] 106 % of control | [19] 96 % of control | [15] 106 % of control

CCOC(=O)c1c(C)[nH]oc1=O
inactive: [10] 111 % of control | [11] 102 % of control | [12] 96 % of control

Cc1cc(OC(C)C(=O)O)c(Cl)cc1Cl (configuration not stated)
inactive: dose: 50.0 mg/kg/injection, schedule: Q01DX001 (ip), vehicle: carboxymethylcellulose (CMC) 103 % of control | [16] 103 % of control

CCN(C(=O)Nc1ccc(OC)cc1)c1ccccc1C
inactive: [13] 99 % of control | [18] 96 % of control | [14] 96 % of control | [19] 102 % of control | [15] 96 % of control

c1ccc([P+](Cc2ccc3c(c2)OCO3)(c2ccccc2)c2ccccc2)cc1
inactive: dose: 12.5 mg/kg/injection, schedule: Q01DX001 (ip), vehicle: saline 98 % of control | dose: 12.5 mg/kg/injection, schedule: Q01DX009 (ip), vehicle: saline 101 % of control | dose: 12.5 mg/kg/injection, schedule: Q04DX003 (ip), vehicle: saline 95 % of control | dose: 25.0 mg/kg/injection, schedule: Q01DX001 (ip), vehicle: saline 95 % of control | dose: 25.0 mg/kg/injection, schedule: Q04DX003 (ip), vehicle: saline 106 % of control | dose: 50.0 mg/kg/injection, schedule: Q01DX001 (ip), vehicle: saline 96 % of control | dose: 50.0 mg/kg/injection, schedule: Q04DX003 (ip), vehicle: saline 88 % of control
